How the values were obtained:
CDK5-p25 PPI = molecular target: T1, CDK5-p25 PPI (Homo sapiens, UniProt Q00535+Q15078, D144N); assay: MultiBacMam BiFC assay of CDK5-p25 PPI in transduced U2OS cells (VN-CDK5(D144N)/VC-p25); conditions: mammalian cell-based BiFC assay, versus published yeast-based data
T1 construct: The cleavage of p35 by the protease calpain generates p25; expressed in transfected cells; host or cells: U2OS cells transduced with MultiBacMam baculovirus
Procedure: (§1) Experiments were carried out in sterile, black clear-bottom 384 well plates (Cell carrier™ Perkin Elmer). U2OS cells were seed at density of cells 5 × 10^4 cells/well. After 3 hours, attached cells were transduced with 20 µl/well of viral stock dilution in PBS (Gibco) at multiplicity of infection (MOI) of 500 MOI. After were centrifuged during 30′ at 1500 rpm. Then plates were incubated at 37 °C during 5 hours. Thereafter the virus solution was replaced with 40 ul of complete growth medium containing 3 mM sodium butyrate (ABCR) with or without compound depending of the experiment. Cells were incubated for 16 hours at 37 °C with 5% of CO2. Finally plates were fixed with 4% paraformaldehyde (PFA) and stained with 5 µM Hoechst 33342 (Sigma-Aldrich). After 10 minutes of incubation at room temperature, plates were washed with PBS (GiBCO) and stored at 4 °C until imaging. For the immunostaining against p25 cells were permeabilized and stained with PBS, BSA 0.2% and Triton-X 100 0.5% and p35 (C-19) antibody from Santa Cruz Biotechnology (diluted 1:100 and incubated at 4 °C o/n). […]
(§2) Cells were transduced or transfected and fixed as described above. Cells were stored in PBS until automated fluorescence microscopy analysis with Opera. Fluorescence images were acquired using the Opera QEHS reader (Perkin-Elmer) using a 20x objective. […]

U2OS cells = assay: Total cell number / cytotoxicity in BiFC experiments; assay type: cell-based; conditions: prohibited increasing the compound concentration to above 13 µM
Procedure: Experiments were carried out in sterile, black clear-bottom 384 well plates (Cell carrier™ Perkin Elmer). U2OS cells were seed at density of cells 5 × 10^4 cells/well. After 3 hours, attached cells were transduced with 20 µl/well of viral stock dilution in PBS (Gibco) at multiplicity of infection (MOI) of 500 MOI. After were centrifuged during 30′ at 1500 rpm. Then plates were incubated at 37 °C during 5 hours. Thereafter the virus solution was replaced with 40 ul of complete growth medium containing 3 mM sodium butyrate (ABCR) with or without compound depending of the experiment. Cells were incubated for 16 hours at 37 °C with 5% of CO2. Finally plates were fixed with 4% paraformaldehyde (PFA) and stained with 5 µM Hoechst 33342 (Sigma-Aldrich). After 10 minutes of incubation at room temperature, plates were washed with PBS (GiBCO) and stored at 4 °C until imaging. For the immunostaining against p25 cells were permeabilized and stained with PBS, BSA 0.2% and Triton-X 100 0.5% and p35 (C-19) antibody from Santa Cruz Biotechnology (diluted 1:100 and incubated at 4 °C o/n). Then, the plates were incubated for 2 hrs at 37 °C with a donkey anti-rabbit conjugated with the alexa fluor 647 secondary antibody (Invitrogen). Finally plates were washed with PBS and stored at 4 °C until imaging.
Supplementary Figure S2. Total cell number in BiFC experiments. […]

MLKL-RIPK3 PPI = molecular target: T2, MLKL-RIPK3 PPI (Homo sapiens, UniProt Q8NB16+Q9Y572); assay: MLKL-RIPK3 BiFC counter assay in transduced U2OS cells (VN-MLKL/VC-RIPK3); assay type: cell-based; conditions: counter screen, 16h treatment; CPDs even at high concentration
T2 construct: expressed in transfected cells; host or cells: U2OS cells transduced with MultiBacMam baculovirus
Procedure: as §1, with “imaging.” for “imaging. For the immunostaining against p25 cells were permeabilized and stained with PBS, BSA 0.2% and Triton-X 100 0.5% and p35 (C-19) antibody from Santa Cruz Biotechnology (diluted 1:100 and incubated at 4 °C o/n).”
as §2
(§3) Supplementary Figure S3. […] Then cells were treated with indicated amounts of compounds for 16h and percentage of BiFC positive cells was determined by High Content image analysis.

Tau dimerization = assay: Tau BiFC counter assay in transduced U2OS cells (VN-TAU/VC-TAU); assay type: cell-based; conditions: counter screen, 16h treatment; CPDs even at high concentration
Procedure: as §1, with “imaging.” for “imaging. For the immunostaining against p25 cells were permeabilized and stained with PBS, BSA 0.2% and Triton-X 100 0.5% and p35 (C-19) antibody from Santa Cruz Biotechnology (diluted 1:100 and incubated at 4 °C o/n).”
as §2, §3

T1 sequence (Q00535 whole entry D144N): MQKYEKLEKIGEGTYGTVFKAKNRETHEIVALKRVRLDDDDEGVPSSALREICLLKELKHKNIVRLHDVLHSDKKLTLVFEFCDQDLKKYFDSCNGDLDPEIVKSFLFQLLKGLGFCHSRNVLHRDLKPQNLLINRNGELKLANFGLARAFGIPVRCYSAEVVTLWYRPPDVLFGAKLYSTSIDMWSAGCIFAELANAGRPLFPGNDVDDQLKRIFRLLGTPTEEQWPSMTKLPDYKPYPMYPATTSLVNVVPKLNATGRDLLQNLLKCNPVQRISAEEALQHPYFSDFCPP
T1 sequence (Q15078 99-307 limits assumed): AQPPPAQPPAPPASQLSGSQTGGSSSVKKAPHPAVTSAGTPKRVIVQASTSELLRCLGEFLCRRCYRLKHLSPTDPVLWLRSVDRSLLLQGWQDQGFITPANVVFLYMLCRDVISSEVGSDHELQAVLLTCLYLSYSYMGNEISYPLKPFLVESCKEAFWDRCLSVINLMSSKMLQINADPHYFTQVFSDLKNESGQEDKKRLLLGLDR
T2 sequence (Q8NB16 whole entry): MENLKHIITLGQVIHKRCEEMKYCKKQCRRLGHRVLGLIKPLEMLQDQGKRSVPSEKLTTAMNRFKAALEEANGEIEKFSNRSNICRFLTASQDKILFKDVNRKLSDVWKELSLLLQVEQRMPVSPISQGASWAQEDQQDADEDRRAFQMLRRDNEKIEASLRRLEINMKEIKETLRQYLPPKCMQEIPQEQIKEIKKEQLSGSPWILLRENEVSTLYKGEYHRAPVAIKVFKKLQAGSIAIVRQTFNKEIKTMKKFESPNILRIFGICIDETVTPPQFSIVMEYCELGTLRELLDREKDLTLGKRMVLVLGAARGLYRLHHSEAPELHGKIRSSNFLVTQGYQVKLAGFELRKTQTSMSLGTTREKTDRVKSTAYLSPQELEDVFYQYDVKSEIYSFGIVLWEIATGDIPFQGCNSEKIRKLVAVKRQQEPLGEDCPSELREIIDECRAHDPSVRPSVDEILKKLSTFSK
T2 sequence (Q9Y572 whole entry): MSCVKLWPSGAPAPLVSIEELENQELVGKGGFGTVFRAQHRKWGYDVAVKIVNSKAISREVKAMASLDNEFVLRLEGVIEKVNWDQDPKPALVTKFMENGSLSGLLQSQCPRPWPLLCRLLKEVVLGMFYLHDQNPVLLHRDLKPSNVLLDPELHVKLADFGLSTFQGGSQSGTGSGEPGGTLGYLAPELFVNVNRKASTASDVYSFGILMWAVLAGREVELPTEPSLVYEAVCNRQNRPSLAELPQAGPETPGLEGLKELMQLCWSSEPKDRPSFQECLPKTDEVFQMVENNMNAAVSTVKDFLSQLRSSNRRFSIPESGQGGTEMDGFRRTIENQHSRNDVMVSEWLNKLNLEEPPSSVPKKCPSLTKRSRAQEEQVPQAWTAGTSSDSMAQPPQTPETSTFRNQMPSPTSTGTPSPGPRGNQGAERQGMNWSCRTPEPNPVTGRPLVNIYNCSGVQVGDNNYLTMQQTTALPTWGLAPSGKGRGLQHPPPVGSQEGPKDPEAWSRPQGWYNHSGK

| SMILES | inhibitory effect on CDK5-p25 PPI (CDK5-p25 PPI) | toxic effect on the cells (U2OS cells) | effect on MLKL-RIPK3 PPI (MLKL-RIPK3 PPI) | effect on Tau dimerization (Tau dimerization) |
| --- | --- | --- | --- | --- |
| C[C@@]12CCC[C@H]1[C@@H]1CC[C@H]3C[C@H](N)CC[C@]3(C)[C@H]1CC2 [3α-amino-5α-androstane] | did not reproduce this published data | toxic effect | – | – |
| CC(C)CC(=O)Nc1[nH]nc2c1CN(C(=O)C1CCN(C)CC1)C2(C)C [pHA-793887] | – | – | non-specific fluorescence complementation inhibitor | non-specific fluorescence complementation inhibitor |

— PMC5865166, “MultiBacMam Bimolecular Fluorescence Complementation (BiFC) tool-kit identifies new small-molecule inhibitors of the CDK5-p25 protein-protein interaction (PPI)” (Scientific Reports, 2018)
